Six molecules from patent US11524966B1 (Valo Early Discovery, Inc., priority 2017, dated 2022) can be followed below.

Structures are written as SMILES.

The experiment addresses T1, USP25 (USP25-His6, Boston Biochem E-546) (Homo sapiens, UniProt Q9UHP3).
T1 construct: His6; purchased Boston Biochem E-546
T1 sequence (Q9UHP3 1-1055): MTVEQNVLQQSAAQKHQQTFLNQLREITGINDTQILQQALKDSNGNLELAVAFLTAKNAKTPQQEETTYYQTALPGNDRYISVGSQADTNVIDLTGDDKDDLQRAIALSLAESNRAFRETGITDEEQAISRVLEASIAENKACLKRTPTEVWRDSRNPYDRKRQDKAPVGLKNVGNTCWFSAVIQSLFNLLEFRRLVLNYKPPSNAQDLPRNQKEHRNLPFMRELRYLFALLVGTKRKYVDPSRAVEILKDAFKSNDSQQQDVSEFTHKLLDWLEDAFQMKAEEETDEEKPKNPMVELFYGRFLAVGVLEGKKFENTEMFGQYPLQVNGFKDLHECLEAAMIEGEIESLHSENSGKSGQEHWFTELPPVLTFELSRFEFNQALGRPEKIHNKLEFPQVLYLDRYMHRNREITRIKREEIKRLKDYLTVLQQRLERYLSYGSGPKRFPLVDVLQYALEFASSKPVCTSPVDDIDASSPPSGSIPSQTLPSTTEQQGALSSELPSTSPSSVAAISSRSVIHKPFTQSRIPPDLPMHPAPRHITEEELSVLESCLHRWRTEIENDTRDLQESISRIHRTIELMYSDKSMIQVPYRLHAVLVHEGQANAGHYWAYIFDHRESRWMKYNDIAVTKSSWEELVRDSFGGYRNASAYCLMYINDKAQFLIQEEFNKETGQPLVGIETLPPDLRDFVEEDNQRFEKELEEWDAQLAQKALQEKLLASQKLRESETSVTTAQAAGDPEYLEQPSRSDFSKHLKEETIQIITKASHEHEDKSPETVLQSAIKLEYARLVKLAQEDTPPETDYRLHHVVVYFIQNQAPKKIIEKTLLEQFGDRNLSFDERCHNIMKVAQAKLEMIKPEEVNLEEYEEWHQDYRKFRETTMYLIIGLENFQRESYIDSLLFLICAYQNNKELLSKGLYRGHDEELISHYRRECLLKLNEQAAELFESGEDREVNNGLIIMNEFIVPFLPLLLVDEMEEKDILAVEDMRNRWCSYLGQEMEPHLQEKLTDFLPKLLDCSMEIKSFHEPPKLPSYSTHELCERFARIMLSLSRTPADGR
The experiment is described as follows: Ubiquitin-Rhodamine 110 Assay for USP25 Activity, Example A-2. It counts as biochemical. The note with it: Ubiquitin-Rhodamine 110 assay, Example A-2; read-out: USP25 A-2 IC50 range. A digest of the protocol:
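75 pM USP25-His6 was preincubated 30 min with compound (10-point 3-fold series, 25 μM–1.3 nM) in pH 8.0 Tris buffer with BME, BGG and Triton X-100. Then 25 nM Ub-Rh110 (<<Km) was added for 45 min at room temperature, stopped with citric acid, fluorescence read at 485/535 nm, IC50 by 4-parameter fit.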
In general, IC50 refers to the concentration needed to halve the response being measured. In the case of `O=C(N[C@H]1COc2cc(N3CCNCC3)ccc2C1)c1ccc(NCc2ccc3c(c2)CCO3)nc1` [Example 472, (R)-6-(((2,3-dihydrobenzofuran-5-yl)methyl)amino)-N-(7-(piperazin-1-yl)chroman-3-yl)nicotinamide], the IC50 fell in the range of 200 to 2000 nM.
Consider `Cc1cnc2c(N)c(C(=O)N[C@@H]3CCc4cc(N5CC6CNCC(C5)O6)ccc4C3)sc2n1` [Example 450, N-((2R)-6-(9-oxa-3,7-diazabicyclo[3.3.1]nonan-3-yl)-1,2,3,4-tetrahydronaphthalen-2-yl)-7-amino-3-methylthieno[2,3-b]pyrazine-6-carboxamide], for which the IC50 is over 2000 nM.
`Cc1ccc2c(N)c(C(=O)N[C@H]3COc4cc(N5CC6CNC[C@](C)(C5)O6)cc(F)c4C3)sc2n1` [Example 413, 3-amino-N-[(3R)-5-fluoro-7-[(1R)-1-methyl-9-oxa-3,7-diazabicyclo[3.3.1]nonan-3-yl]-3,4-dihydro-2H-1-benzopyran-3-yl]-6-methylthieno[2,3-b]pyridine-2-carboxamide]: the IC50 lay within 200 to 2000 nM.
As to `Cc1ccc2c(N)c(C(=O)N[C@H]3COc4cc(N5CCC[C@](C)(O)C5)ccc4C3)sc2n1` [Example 7-2], the IC50 lay in the range of 200 to 2000 nM.
With `Cc1ccc2c(N)c(C(=O)N[C@H]3COc4cc(N5CCC(C(=O)O)CC5)ccc4C3)sc2n1` [Example 6-1, (R)-1-(3-(3-Amino-6-methylthieno[2,3-b]pyridine-2-carboxamido)chroman-7-yl)piperidine-4-carboxylic Acid] the figure was over 2000 nM.
The figure for `CO[C@H]1CN(c2cc3c(c(F)c2F)C[C@@H](NC(=O)c2sc4nc(C)ccc4c2N)CO3)C[C@@H]1N` [Example 416, 3-amino-N-[(3R)-7-[(3S,4S)-3-amino-4-methoxpyrrolidin-1-yl]-5,6-difluoro-3,4-dihydro-2H-1-benzopyran-3-yl]-6-methylthieno[2,3-b]pyridine-2-carboxamide] is 200 to 2000 nM.
